From PMC12363935, “Unc-51 Like Kinase 3 (ULK3) is essential for autophagy and cell survival in multiple myeloma” (Research Square, 2025)

System: co-cultured stromal cells
Experiment: EMMA ex vivo platform, co-cultured stroma
Format: cell-based
Conditions: highest concentration 20 μM
Protocol: Figure 7. MA9–060 treatment compromises the survival of patient NDMM and RRMM cells ex vivo. A. Representative viability (live cell imaging) response of CD138^+ cells from NDMM patient (Pt620) cultured and tested in autologous stromal microenvironment in EMMA’s ex vivo platform, exposed to three different concentrations of MA9–060 (0.7, 2.2, 6.7 μM). […] (not shown here – 20 μM). B. Ex vivo EMMA platform assay to quantify the chemosensitivity of primary CD138^+ MM cells plated in a collagen matrix with bone marrow stroma and patient plasma. […] C. […] H. Immunoblot showing levels of indicated proteins in CD138^+ cells isolated from RRMM patients (Pt971, Pt1050). Pt1050 CD138^+ cells were assessed for ULK3-mediated autophagy related proteins (ATGs), following treatment with MA9–060 (1μM at 2 and 6 hours).
402 aspirate cells were enriched for CD138+ expression using Miltenyi (Bergisch Gladbach, Germany)
403 130-051-301 antibody-conjugated magnetic beads. MM cells (CD138+) were seeded in Corning
404 Cell BIND 384 well plates (Corning, NY) with collagen I and previously established human-
405 derived stroma, containing approximately 4000 MM cells and 1000 stromal cells. Each well was
406 filled with 80μL of RPMI 1640 media supplemented with fetal bovine serum (FBS, heat […]
422 images acquired for each well, we quantified non-destructively, and without the need to separate […]

Cc1cnc(Nc2ccc(C3CCN(C)CC3)c(F)c2)nc1Nc1ccc(Cl)c(NS(=O)(=O)C(C)(C)C)c1 [MA9060]
toxicity for co-cultured stromal cells: no toxicity
